# From US20050245399A1, “Pyrazole derivatives as herbicidal compositions containing them” (ISHIHARA SANGYO KAISHA, LTD., priority 2004, published 2005)
# Legend:
# Assay type in all cases: in vivo
# [1] = test system: velvetleaf (Abutilon theophrasti), ABUTH; assay: Test Example 2 post-emergence (foliage treatment) herbicidal activity, ABUTH
# In short: (§1)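 A small sprayer delivered the diluted WP or EC formulation (500 L/ha water, 0.1% v/v spreader) over emerged seedlings in upland soil pots. Damage relative to untreated plants was graded visually from 0 to 100% three weeks or so later (days 20-23).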
# [2] = test system: green foxtail (Setaria viridis L.): SETVI; assay: Test Example 1 pre-emergence herbicidal activity, SETVI; settings: visually observed 20th to 23rd day after application
# In short: (§2)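 Visual scoring 20–23 days after treatment gives percent growth control, where 0 equals untreated and 100 means complete kill. Treatment: pre-emergence spray of formulated compound in 500 L/ha water, one day after sowing in upland soil.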
# [3] = test system: rice (Oryza sativa L.): ORYSA; assay: Test Example 1 pre-emergence herbicidal activity, ORYSA; settings: visually observed 20th to 23rd day after application
# In short: as §2
# [4] = test system: barnyardgrass (Echinochloa crus-galli L.), ECHCG; assay: Test Example 2 post-emergence (foliage treatment) herbicidal activity, ECHCG
# In short: (§3)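 Foliar spray of formulated compound (500 L/ha dilution water, 0.1% v/v spreader) onto young potted plants at defined leaf stages. Scored 0-100% by visual inspection 20-23 d post-spray.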
# [5] = test system: rice (Oryza sativa L.), ORYSA; assay: Test Example 2 post-emergence (foliage treatment) herbicidal activity, ORYSA
# In short: as §3
# [6] = test system: wheat (Triticum aestivum L.): TRZAX; assay: Test Example 1 pre-emergence herbicidal activity, TRZAX; settings: visually observed 20th to 23rd day after application
# In short: as §2
# [7] = test system: wheat (Triticum aestivum L.), TRZAX; assay: Test Example 2 post-emergence (foliage treatment) herbicidal activity, TRZAX
# In short: as §1
# [8] = test system: crabgrass (Digitaria sanguinalis L.), DIGSA; assay: Test Example 2 post-emergence (foliage treatment) herbicidal activity, DIGSA
# In short: as §3
# [9] = test system: crabgrass (Digitaria sanguinalis L.): DIGSA; assay: Test Example 1 pre-emergence herbicidal activity, DIGSA; settings: visually observed 20th to 23rd day after application
# In short: as §2
# [10] = test system: barnyardgrass (Echinochiloa oryzicola: ECHOR); assay: Test Example 3 water application herbicidal activity (paddy), ECHOR; settings: 63 g a.i./ha, water application under submerged condition at 0.5 leaf stage, visually observed 14th day after application; 0 = untreated control, 100 = complete kill
# In short: (§4)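 Submerged application in flooded paddy soil (3–4 cm water); weeds treated at 0.5-leaf stage, transplanted rice 4 d after transplanting. Scored visually as % growth control: weeds at 14 d, rice at 21 d.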
# [11] = test system: redroot pigweed (Amaranthus retroflexus L.), AMARE; assay: Test Example 2 post-emergence (foliage treatment) herbicidal activity, AMARE
# In short: as §3
# [12] = test system: soybean (Glycine max Merr.): GLXMA; assay: Test Example 1 pre-emergence herbicidal activity, GLXMA; settings: visually observed 20th to 23rd day after application
# In short: as §2
# [13] = test system: japanese bulrush (Scirpus juncoides: SCPJO); assay: Test Example 3 water application herbicidal activity (paddy), SCPJO; settings: 63 g a.i./ha, water application under submerged condition at 0.5 leaf stage, visually observed 14th day after application; 0 = untreated control, 100 = complete kill
# In short: as §4
# [14] = test system: soybean (Glycine max Merr.), GLXMA; assay: Test Example 2 post-emergence (foliage treatment) herbicidal activity, GLXMA
# In short: as §1
# [15] = test system: velvetleaf (Abutilon theophrasti): ABUTH; assay: Test Example 1 pre-emergence herbicidal activity, ABUTH; settings: visually observed 20th to 23rd day after application
# In short: as §2
# [16] = test system: barnyardgrass (Echinochloa crus-galli L.): ECHCG; assay: Test Example 1 pre-emergence herbicidal activity, ECHCG; settings: visually observed 20th to 23rd day after application
# In short: as §2
# [17] = test system: redroot pigweed (Amaranthus retroflexus L.): AMARE; assay: Test Example 1 pre-emergence herbicidal activity, AMARE; settings: Rate 63 g a.i./ha, visually observed 20th to 23rd day after application
# In short: as §2
# [18] = test system: prickly sida (Sida spinosa L.), SIDSP; assay: Test Example 2 post-emergence (foliage treatment) herbicidal activity, SIDSP
# In short: as §1
# [19] = test system: rice (Oryza sativa L.: ORYSA); assay: Test Example 3 water application herbicidal activity (paddy), transplanted rice ORYSA; settings: 63 g a.i./ha, water application 4th day after transplantation of 2 leaf stage rice, visually observed 21st day after application; 0 = untreated control, 100 = complete kill
# From the text: Paddy field soil was put into a 1/1,000,000 ha pot and seeds of barnyardgrass (Echinochiloa oryzicola: ECHOR) and japanese bulrush (Scirpus juncoides: SCPJO) were sown and slightly covered with soil. Then the pot was left to stand still in a greenhouse in a state where the depth of flooding water was from 0.5 to 1 cm, and one day later, tubers of japanese ribbon wapato (Sagittaria pygmaea: SA GPY) were planted. Thereafter, the depth of flooding water was maintained at a level of from 3 to 4 cm, and when barnyardgrass and japanese bulrush reached a 0.5 leaf stage, an aqueous diluted solution of a wettable powder or emulsifiable concentrate having the compound of the present invention formulated in accordance with a usual formulation method, was uniformly applied under submerged condition by a pipette so that the dose of the active ingredient would be at a predetermined level. On the other hand, paddy filed soil was put into a 1/1,000,000 ha pot and puddled and leveled, and the depth of flooding water was from 3 to 4 cm. One day later, rice (Oryza sativa L.: ORYSA) of 2 leaf stage was transplanted in a depth of 3 cm. On the 4th day after the transplantation, the compound of the present invention was applied in the same manner as described above. On the 14th day after the application of the herbicide, the growth of barnyardgrass, japanese burlush and japanese ribbon wapato was visually observed and on the 21st day after the application of the herbicide, the growth of rice was visually observed, and the herbicidal effects were evaluated by growth controlling degrees (%) ranging from 0 (equivalent to the untreated control) to 100 (complete kill), whereby the results shown in Table 6, were obtained. Compound Nos. in Table 6 correspond to Compound Nos. in Table 1 and 2 given hereinbefore.
# [20] = test system: corn (Zea mays L.): ZEAMX; assay: Test Example 1 pre-emergence herbicidal activity, ZEAMX; settings: visually observed 20th to 23rd day after application
# In short: as §2
# [21] = test system: corn (Zea mays L.), ZEAMX; assay: Test Example 2 post-emergence (foliage treatment) herbicidal activity, ZEAMX
# In short: as §1
# [22] = test system: japanese ribbon wapato (Sagittaria pygmaea: SA GPY); assay: Test Example 3 water application herbicidal activity (paddy), SAGPY; settings: 63 g a.i./ha, water application under submerged condition, tubers planted, visually observed 14th day after application; 0 = untreated control, 100 = complete kill
# In short: as §4
# [23] = test system: prickly sida (Sida spinosa L.): SEDSP; assay: Test Example 1 pre-emergence herbicidal activity, SIDSP; settings: visually observed 20th to 23rd day after application
# In short: as §2
# [24] = test system: green foxtail (Setaria viridis L.), SETVI; assay: Test Example 2 post-emergence (foliage treatment) herbicidal activity, SETVI
# In short: as §1
SMILES,"growth controlling degree, ABUTH ([1]; 63 g a.i./ha) [%]",Pre-emergence Herbicidal Activity SETVI (growth controlling degree) ([2]; Rate 63 g a.i./ha) [%],Pre-emergence Herbicidal Activity ORYSA (growth controlling degree) ([3]; Rate 63 g a.i./ha) [%],"growth controlling degree, ECHCO ([4]; 63 g a.i./ha) [%]","growth controlling degree, ORYSA ([5]; 63 g a.i./ha) [%]",Pre-emergence Herbicidal Activity TRZAX (growth controlling degree) ([6]; Rate 63 g a.i./ha) [%],"growth controlling degree, TRZAX ([7]; 63 g a.i./ha) [%]","growth controlling degree, DIGSP ([8]; 63 g a.i./ha) [%]",Pre-emergence Herbicidal Activity DIGSP (growth controlling degree) ([9]; Rate 63 g a.i./ha) [%],growth controlling degrees (%) ECHOR [10] [%],"growth controlling degree, AMARE ([11]; 63 g a.i./ha) [%]",Pre-emergence Herbicidal Activity GLXMA (growth controlling degree) ([12]; Rate 63 g a.i./ha) [%],growth controlling degrees (%) SCPJO [13] [%],"growth controlling degree, GLXMA ([14]; 63 g a.i./ha) [%]",Pre-emergence Herbicidal Activity ABUTH (growth controlling degree) ([15]; Rate 63 g a.i./ha) [%],Pre-emergence Herbicidal Activity ECHCG (growth controlling degree) ([16]; Rate 63 g a.i./ha) [%],"growth controlling degree, SIDSP ([18]; 63 g a.i./ha) [%]",growth controlling degrees (%) ORYSA [19] [%],"growth controlling degree, ZEAMX ([21]; 63 g a.i./ha) [%]",growth controlling degrees (%) SAGPY [22] [%],further results
COc1c(Cl)cc(F)c(-c2nn(C)c(OC(F)F)c2Cl)c1NC(=O)c1ccc(C#N)cc1 [Compound 1-32],100,100,60,95,90,10,50,70,100,100,100,10,70,80,100,95,100,50,95,100,Pre-emergence Herbicidal Activity AMARE (growth controlling degree) [17]: 100%; Pre-emergence Herbicidal Activity ZEAMX (growth controlling degree) ([20]; Rate 63 g a.i./ha): 10%; Pre-emergence Herbicidal Activity SIDSP (growth controlling degree) ([23]; Rate 63 g a.i./ha): 100%
"COc1c(Cl)cc(F)c(-c2nn(C)c(OC(F)F)c2Cl)c1[N+](=O)[O-] [Compound 2-21, 4-chloro-3-(4-chloro-6-fluoro-3-methoxy-2-nitrophenyl)-5-(difluoromethoxy)-1-methyl-1H-pyrazole]",,,,,,,,,,100,,,98,,,,,40,,100,"growth controlling degree, ABUTH ([1]; 31 g a.i./ha): 100%; growth controlling degree, SETVI ([24]; 31 g a.i./ha): 100%; growth controlling degree, ECHCO ([4]; 31 g a.i./ha): 100%; growth controlling degree, ORYSA ([5]; 31 g a.i./ha): 90%; growth controlling degree, TRZAX ([7]; 31 g a.i./ha): 40%; growth controlling degree, DIGSP ([8]; 31 g a.i./ha): 95%; growth controlling degree, AMARE ([11]; 31 g a.i./ha): 100%; growth controlling degree, GLXMA ([14]; 31 g a.i./ha): 90%; growth controlling degree, SIDSP ([18]; 31 g a.i./ha): 100%; growth controlling degree, ZEAMX ([21]; 31 g a.i./ha): 80%"
CCOC(=O)Nc1c(OC)c(Cl)cc(F)c1-c1nn(C)c(OC(F)F)c1Cl [Compound 1-273],98,20,10,30,10,0,20,20,30,70,100,0,0,60,10,0,90,30,10,0,Pre-emergence Herbicidal Activity AMARE (growth controlling degree) [17]: 80%; Pre-emergence Herbicidal Activity ZEAMX (growth controlling degree) ([20]; Rate 63 g a.i./ha): 0%
CCOC(=O)CN(C=O)c1c(OC)c(Cl)cc(F)c1-c1nn(C)c(OC(F)F)c1Cl [Compound 1-19],90,,,30,20,,10,30,,70,100,,30,60,,,90,30,0,20,"Pre-emergence Herbicidal Activity SETVI (growth controlling degree) ([2]; Rate 125 g a.i./ha): 10%; growth controlling degree, SETVI ([24]; 63 g a.i./ha): 30%; Pre-emergence Herbicidal Activity ORYSA (growth controlling degree) ([3]; Rate 125 g a.i./ha): 0%; Pre-emergence Herbicidal Activity TRZAX (growth controlling degree) ([6]; Rate 125 g a.i./ha): 0%; Pre-emergence Herbicidal Activity DIGSP (growth controlling degree) ([9]; Rate 125 g a.i./ha): 50%; Pre-emergence Herbicidal Activity GLXMA (growth controlling degree) ([12]; Rate 125 g a.i./ha): 0%; Pre-emergence Herbicidal Activity ABUTH (growth controlling degree) ([15]; Rate 125 g a.i./ha): 20%; Pre-emergence Herbicidal Activity ECHCG (growth controlling degree) ([16]; Rate 125 g a.i./ha): 0%; Pre-emergence Herbicidal Activity ZEAMX (growth controlling degree) ([20]; Rate 125 g a.i./ha): 20%; Pre-emergence Herbicidal Activity SIDSP (growth controlling degree) ([23]; Rate 125 g a.i./ha): 50%"
